Measurements: patent publication US20240199542A1, “SUBSTITUTED PYRROLIDIN-2-ONES, SALTS THEREOF AND THEIR USE AS HERBICIDALLY ACTIVE SUBSTANCES” (Bayer Aktiengesellschaft, priority 2021, published 2024)

How the values were obtained:
Assay type in all cases: in vivo
[1] = system: Glycine max (GLXMA); experiment: Pre-emergence effects on crop plants; conditions: 320 g/ha, crop plant
Excerpt: (§1) Seeds of mono- and dicotyledonous weed plants and crop plants were sown, in plastic or organic planting pots, in sandy loam and covered with soil. The compounds according to the invention, formulated in the form of wettable powders (WP) or as emulsifiable concentrates (EC), were applied to the surface of the covering soil as aqueous suspension or emulsion, with the addition of 0.5% of an additive, at an application rate of 600 1 of water/ha (converted).
(§2) Following treatment, the pots were placed in a greenhouse and kept under optimum growth conditions for the test plants. The visual grading of the damage to the test plants was carried out after ca. 3 weeks in comparison to untreated controls (herbicidal effect in percent (%): 100% effect=plants have died off, 0% effect=as control plants).
(§3) Tables C1 to C3 below show the effects of selected compounds of the general formula (I) according to table 1 on various crop plants and an application rate corresponding to 320 g/ha or below obtained by the experimental procedure mentioned above in biology section A.

[2] = system: Zea Mays (ZEAMX); experiment: Pre-emergence effects on crop plants; conditions: crop plant
Excerpt: as §1, §2, §3

[3] = system: Brassica napus (BRSNW); experiment: Pre-emergence effects on crop plants; conditions: 320 g/ha, crop plant
Excerpt: as §1, §2, §3

[4] = system: Digitaria sanguinalis (DIGSA); experiment: Herbicidal pre-emergence action; conditions: graded after ca. 3 weeks
In short: (§4)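 Seeds sown in sandy loam and covered with soil; WP- or EC-formulated compounds applied to the covering soil surface as aqueous suspension/emulsion with 0.5% additive at 600 l water/ha, rates of 1280 g/ha or lower. Greenhouse growth; visual damage scored after ca. 3 weeks versus untreated controls (0–100%).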

[5] = system: Setaria viridis (SETVI); experiment: Herbicidal pre-emergence action; conditions: graded after ca. 3 weeks
In short: as §4

[6] = system: Cyperus esculentus (CYPES); experiment: Herbicidal pre-emergence action; conditions: 1280 g/ha, graded after ca. 3 weeks
In short: as §4

[7] = system: Echinochloa crus-galli (ECHCG); experiment: Herbicidal pre-emergence action; conditions: 1280 g/ha, graded after ca. 3 weeks
In short: as §4

[8] = system: Stellaria media (STEME); experiment: Herbicidal pre-emergence action; conditions: 1280 g/ha, graded after ca. 3 weeks
In short: as §4

[9] = system: Polygonum convolvulus (POLCO); experiment: Herbicidal pre-emergence action; conditions: graded after ca. 3 weeks
In short: as §4

[10] = system: Viola tricolor (VIOTR); experiment: Herbicidal pre-emergence action; conditions: 320 g/ha, graded after ca. 3 weeks
In short: as §4

[11] = system: Veronica persica (VERPE); experiment: Herbicidal pre-emergence action; conditions: 1280 g/ha, graded after ca. 3 weeks
In short: as §4

[12] = system: Pharbitis purpurea (PHBPU); experiment: Herbicidal pre-emergence action; conditions: 1280 g/ha, graded after ca. 3 weeks
In short: as §4

[13] = system: Lolium multiflorum (LOLMU); experiment: Herbicidal pre-emergence action; conditions: 1280 g/ha, graded after ca. 3 weeks
In short: as §4

[14] = system: Alopecurus myosuroides (ALOMY); experiment: Herbicidal pre-emergence action; conditions: 1280 g/ha, graded after ca. 3 weeks
In short: as §4

[15] = system: Avena fatua (AVEFA); experiment: Herbicidal pre-emergence action; conditions: 1280 g/ha, graded after ca. 3 weeks
In short: as §4

[16] = system: Glycine max (GLXMA); experiment: Post-emergence effects on crop plants; conditions: 320 g/ha, crop plant
Excerpt: (§5) Seeds of mono- and dicotyledonous weed plants and crop plants were sown, in plastic or organic planting pots, in sandy loam, covered with soil and grown in a greenhouse under controlled growth conditions. 2 to 3 weeks after sowing, the test plants were sprayed in the single-leaf stage. The compounds according to the invention, formulated in form of wettable powders (WP) or as emulsifiable concentrates (EC), were sprayed onto the green plant parts as aqueous suspension or emulsion, with the addition of 0.5% of an additive, at an application rate of 600 1 of water/ha (converted). The test plants were placed in the greenhouse for ca. 3 weeks under optimum growth conditions, and then the effect of the preparations was assessed visually in comparison with untreated controls (herbicidal effect in percent (%): 100% effect=plants have died off, 0% effect=as control plants).
(§6) Tables D1 to D3 below show the effects of selected compounds of the general formula (I) according to table 1 on various crop plants and an application rate corresponding to 320 g/ha or below obtained by the experimental procedure mentioned above in biology section B.

[17] = system: Zea Mays (ZEAMX); experiment: Post-emergence effects on crop plants; conditions: crop plant
Excerpt: as §5, §6

[18] = system: Brassica napus (BRSNW); experiment: Post-emergence effects on crop plants; conditions: crop plant Brassica napus (BRSNW)
Excerpt: as §5, §6

[19] = system: Digitaria sanguinalis (DIGSA); experiment: Herbicidal post-emergence action; conditions: assessed after ca. 3 weeks
In short: (§7)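 Greenhouse weeds in sandy loam were sprayed at single-leaf stage, 2–3 weeks after sowing, with WP or EC formulations plus 0.5% additive in 600 l water/ha, at 1280 or 320 g/ha. Visual % effect vs untreated controls after about 3 weeks (100% = dead).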

[20] = system: Echinochloa crus-galli (ECHCG); experiment: Herbicidal post-emergence action; conditions: 1280 g/ha, assessed after ca. 3 weeks
In short: as §7

[21] = system: Alopecurus myosuroides (ALOMY); experiment: Herbicidal post-emergence action; conditions: 1280 g/ha, assessed after ca. 3 weeks
In short: as §7

[22] = system: Lolium rigidum (LOLRI); experiment: Herbicidal post-emergence action; conditions: 320 g/ha, assessed after ca. 3 weeks
In short: as §7

[23] = system: Avena fatua (AVEFA); experiment: Herbicidal post-emergence action; conditions: 1280 g/ha, assessed after ca. 3 weeks
In short: as §7

[24] = system: Lolium rigidum (LOLRI); experiment: Herbicidal pre-emergence action; conditions: 320 g/ha, graded after ca. 3 weeks
In short: as §4

[25] = system: Setaria viridis (SETVI); experiment: Herbicidal post-emergence action; conditions: 1280 g/ha, assessed after ca. 3 weeks
In short: as §7

[26] = system: Stellaria media (STEME); experiment: Herbicidal post-emergence action; conditions: 1280 g/ha, assessed after ca. 3 weeks
In short: as §7

[27] = system: Polygonum convolvulus (POLCO); experiment: Herbicidal post-emergence action; conditions: 1280 g/ha, assessed after ca. 3 weeks
In short: as §7

[28] = system: Lolium multiflorum (LOLMU); experiment: Herbicidal post-emergence action; conditions: 1280 g/ha, assessed after ca. 3 weeks
In short: as §7

[29] = system: Matricaria inodora (MATIN); experiment: Herbicidal pre-emergence action; conditions: 1280 g/ha, graded after ca. 3 weeks
In short: as §4

[30] = system: Amaranthus retroflexus (AMARE); experiment: Herbicidal pre-emergence action; conditions: 1280 g/ha, graded after ca. 3 weeks
In short: as §4

[31] = system: Cyperus esculentus (CYPES); experiment: Herbicidal post-emergence action; conditions: 1280 g/ha, assessed after ca. 3 weeks
In short: as §7

[32] = system: Poa annua (POAAN); experiment: Herbicidal pre-emergence action; conditions: graded after ca. 3 weeks
In short: as §4

[33] = system: Poa annua (POAAN); experiment: Herbicidal post-emergence action; conditions: assessed after ca. 3 weeks
In short: as §7

Row | Structure (SMILES) | pre-emergence activity against GLXMA (crop damage) [1] | pre-emergence activity against BRSNW (crop damage) [3] | Pre-emergence activity against DIGSA ([4]; 320 g/ha) | Pre-emergence activity against SETVI ([5]; 1280 g/ha) | Pre-emergence activity against CYPES [6] | Pre-emergence activity against ECHCG [7] | Pre-emergence activity against VIOTR [10] | Pre-emergence activity against LOLMU [13] | Pre-emergence activity against ALOMY [14] | Pre-emergence activity against AVEFA [15] | post-emergence activity against GLXMA (crop damage) [16] | Post-emergence activity against DIGSA ([19]; 320 g/ha) | Post-emergence activity against ECHCG [20] | Post-emergence activity against ALOMY [21] | Post-emergence activity against LOLRI [22] | Post-emergence activity against AVEFA [23] | Pre-emergence activity against LOLRI [24] | Post-emergence activity against SETVI [25] | other results
1 | O=C(CC1CCC(=O)N1Cc1cccc(F)c1F)OCCOc1ccc(F)cc1 (racemic) [Example I-007] | 0% | 0% | 90% | 90% | 90% | 90% | 90% | 90% | 90% | 100% | 0% | 90% | 90% | 80% | 80% | 90% | – | – | pre-emergence activity against ZEAMX (crop damage) ([2]; 320 g/ha): 0%; Pre-emergence activity against STEME [8]: 80%; Pre-emergence activity against POLCO ([9]; 1280 g/ha): 90%; Pre-emergence activity against VERPE [11]: 90%; Pre-emergence activity against PHBPU [12]: 80%; post-emergence activity against ZEAMX (crop damage) ([17]; 320 g/ha): 0%; post-emergence activity against BRSNW ([18]; application rate 320 g/ha): 0%
2 | COCCOC(=O)CC1CCC(=O)N1Cc1cccc(F)c1F (racemic) [Example I-015] | 0% | 20% | 100% | 90% | 80% | 90% | 90% | 80% | 90% | 100% | 0% | 80% | 100% | – | 80% | 90% | 80% | 90% | pre-emergence activity against ZEAMX (crop damage) ([2]; 320 g/ha): 0%; Pre-emergence activity against POLCO ([9]; 1280 g/ha): 80%; post-emergence activity against ZEAMX (crop damage) ([17]; 320 g/ha): 0%; post-emergence activity against BRSNW ([18]; application rate 80 g/ha): 0%; Post-emergence activity against STEME [26]: 90%; Post-emergence activity against POLCO [27]: 80%; Post-emergence activity against LOLMU [28]: 80%
3 | O=C(CC1CCC(=O)N1Cc1cccc(F)c1F)OCCOc1ccc(Cl)cc1 (racemic) [Example I-033] | – | – | – | 80% | 80% | 80% | – | – | 90% | 100% | – | – | 80% | 80% | – | – | – | – | Pre-emergence activity against MATIN [29]: 80%; Pre-emergence activity against VERPE [11]: 90%; Pre-emergence activity against PHBPU [12]: 80%
4 | COC(=O)C1(NC(=O)CC2CCC(=O)N2Cc2cccc(F)c2F)CC1 (racemic) [Example I-048] | – | – | – | – | – | – | – | 80% | 80% | 90% | – | – | – | – | – | – | – | – | Pre-emergence activity against AMARE [30]: 90%
5 | O=C(CC1CCC(=O)N1Cc1cccc(F)c1F)NCc1ccccc1 (racemic) [Example I-055] | – | – | – | – | 100% | – | – | – | – | 80% | – | – | – | – | – | – | – | – | Pre-emergence activity against AMARE [30]: 100%
6 | CC1(C)CC(=O)C(C(=O)CC2CCC(=O)N2Cc2cccc(F)c2F)C(=O)C1 (racemic) [Example I-179] | – | – | – | – | – | – | – | – | – | 90% | – | – | 90% | – | – | 90% | – | 80% | Pre-emergence activity against STEME [8]: 80%; Post-emergence activity against STEME [26]: 80%
7 | O=C(O)CC1CCC(=O)N1Cc1cccc(F)c1F (single isomer, unassigned) [Example I-014] | 0% | 0% | 100% | – | – | 80% | 90% | 90% | 100% | 100% | 0% | 80% | 90% | 80% | 80% | 80% | 90% | 90% | pre-emergence activity against ZEAMX (crop damage) ([2]; 80 g/ha): 0%; Pre-emergence activity against SETVI ([5]; 320 g/ha): 90%; Pre-emergence activity against POLCO ([9]; 320 g/ha): 90%; post-emergence activity against ZEAMX (crop damage) ([17]; 80 g/ha): 0%; post-emergence activity against BRSNW ([18]; application rate 80 g/ha): 0%; Post-emergence activity against CYPES [31]: 80%; Post-emergence activity against LOLMU [28]: 80%
8 | O=C(O)CC1CCC(=O)N1Cc1ccc(F)c(F)c1F (stereo not drawn) [Example I-192, [5-Oxo-1-(2,3,4-trifluorobenzyl)pyrrolidin-2-yl]acetic acid] | – | – | 90% | 90% | – | 80% | – | – | 90% | – | – | – | 90% | – | – | – | 90% | – | Pre-emergence activity against DIGSA ([4]; 1280 g/ha): 90%; Pre-emergence activity against POAAN ([32]; 320 g/ha): 100%; Pre-emergence activity against POAAN ([32]; 1280 g/ha): 100%; post-emergence activity against BRSNW ([18]; application rate 320 g/ha): 0%; Post-emergence activity against DIGSA ([19]; 1280 g/ha): 90%; Post-emergence activity against POAAN ([33]; 320 g/ha): 100%; Post-emergence activity against POAAN ([33]; 1280 g/ha): 100%
9 | O=C(CC1CCC(=O)N1Cc1cccc(F)c1F)Nc1ncns1 (stereo not drawn) [Example I-193, 2-[1-[(2,3-difluorophenyl)methyl]-5-oxo-pyrrolidin-2-yl]-N-(1,2,4-thiadiazol-5-yl)acetamide] | – | – | – | – | – | – | – | – | – | – | – | – | – | – | – | – | – | – | Pre-emergence activity against POAAN ([32]; 1280 g/ha): 90%; Post-emergence activity against POAAN ([33]; 1280 g/ha): 90%
